Reference: PMC4558166, “Trametinib modulates cancer multidrug resistance by targeting ABCB1 transporter” (Oncotarget, 2015)
pEC50: −log10 of the molar value.

Molecular target: ABCB1 (MDR1/P-glycoprotein) (Homo sapiens, UniProt P08183)
Experiment: Vi-sensitive ATPase stimulation in High Five insect cell membrane vesicles; also rhodamine […]/doxorubicin accumulation in ABCB1-overexpressing cells
Format: biochemical

ABCB1 (MDR1/P-glycoprotein), sequence (P08183 whole entry): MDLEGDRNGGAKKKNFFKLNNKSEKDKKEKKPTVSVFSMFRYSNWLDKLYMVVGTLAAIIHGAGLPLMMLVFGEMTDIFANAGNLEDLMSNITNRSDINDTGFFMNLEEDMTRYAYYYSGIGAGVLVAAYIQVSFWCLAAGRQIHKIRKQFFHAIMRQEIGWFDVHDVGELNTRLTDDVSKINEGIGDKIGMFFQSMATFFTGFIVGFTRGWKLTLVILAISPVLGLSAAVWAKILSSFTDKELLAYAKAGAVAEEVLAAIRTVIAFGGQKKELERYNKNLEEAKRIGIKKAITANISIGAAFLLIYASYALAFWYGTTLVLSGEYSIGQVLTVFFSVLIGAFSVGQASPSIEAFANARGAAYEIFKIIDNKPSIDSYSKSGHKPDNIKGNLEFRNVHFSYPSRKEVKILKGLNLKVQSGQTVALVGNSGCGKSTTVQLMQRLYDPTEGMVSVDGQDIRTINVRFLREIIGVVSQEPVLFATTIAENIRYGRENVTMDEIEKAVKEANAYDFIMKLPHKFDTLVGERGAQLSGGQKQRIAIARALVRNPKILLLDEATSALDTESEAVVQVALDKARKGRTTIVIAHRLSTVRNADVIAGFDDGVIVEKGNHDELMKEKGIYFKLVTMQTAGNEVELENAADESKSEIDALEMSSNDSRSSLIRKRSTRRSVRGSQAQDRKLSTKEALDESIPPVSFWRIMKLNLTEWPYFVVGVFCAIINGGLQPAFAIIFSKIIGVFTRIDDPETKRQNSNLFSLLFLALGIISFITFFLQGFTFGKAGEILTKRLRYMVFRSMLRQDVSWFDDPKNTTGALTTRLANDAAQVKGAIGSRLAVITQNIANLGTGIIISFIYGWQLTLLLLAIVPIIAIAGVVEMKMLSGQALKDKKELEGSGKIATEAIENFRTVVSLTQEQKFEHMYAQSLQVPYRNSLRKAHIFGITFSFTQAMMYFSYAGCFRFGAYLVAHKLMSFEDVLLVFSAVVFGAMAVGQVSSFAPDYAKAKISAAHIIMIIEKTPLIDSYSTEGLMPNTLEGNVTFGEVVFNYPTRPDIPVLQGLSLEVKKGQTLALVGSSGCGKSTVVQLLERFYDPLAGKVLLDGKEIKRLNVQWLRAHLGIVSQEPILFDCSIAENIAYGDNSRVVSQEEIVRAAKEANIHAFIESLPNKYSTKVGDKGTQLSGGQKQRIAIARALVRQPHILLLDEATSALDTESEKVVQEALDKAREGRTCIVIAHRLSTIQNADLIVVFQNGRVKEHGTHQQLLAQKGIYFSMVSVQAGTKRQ

CC(=O)Nc1cccc(-n2c(=O)n(C3CC3)c(=O)c3c(Nc4ccc(I)cc4F)n(C)c(=O)c(C)c32)c1 [Trametinib]
pEC50: 5.99
